The target of experiment [1] is T1, NTS1R (Homo sapiens, UniProt P30989). As to the kind of experiment: Radiochemical saturation binding, adherent HT-29 cells. As to conditions: 23 °C. The protocol:
Binding of both ligands, [^3H]13 and [^3H]18, was studied at adherent and suspended intact CHO-hNTS1R cells, and binding of [^3H]13 was additionally studied using CHO-hNTS1R cell membrane preparations (saturation and competition binding, kinetic studies). Furthermore, saturation binding experiments were performed with both ligands at intact adherent HT-29 cells. All experiments were performed in triplicate except for dissociation experiments performed with suspended cells in 50 mL flacon tubes (performed in duplicate). To reduce radioligand consumption in the aforementioned experiments, [^3H]13 and [^3H]18 were 1:1 diluted with 13 and 18, respectively (for the purpose of easier reading these mixtures are denoted "[^3H]13" and "[^3H]18"in the following). All samples were incubated at 23 ± 1 °C in the dark under gentle shaking (incubation times are outlined below). DPBS1 served as binding buffer throughout. In the case of experiments performed with cell suspensions, CHO-hNTS1R cells were seeded in T75 culture flasks 3–4 days prior to the experiment. […] The plates were sealed with transparent sealing tape (Greiner EASYseal, part no. 676001, Greiner Bio-One) and shaken in the dark overnight before measurement of the radioactivity (dpm) using a MicroBeta2 plate counter equipped with six pairs of photomultiplier tubes (PerkinElmer). […]

Experiment [2] has as its target T1, NTS1R. As to the kind of experiment: Radiochemical competition binding, adherent CHO-hNTS1R cells. As to conditions: labeled probe [^3H]13 (1.3 nM), 90 min, 23 °C, read-out: RC adherent cells: pKi ± SEM (converted).
Experiment [3] has as its target T1, NTS1R. As to the kind of experiment: Radiochemical competition binding, suspended CHO-hNTS1R cells. As to conditions: labeled probe [^3H]13 (1.8 nM), 90 min, 23 °C, read-out: RC cell suspension: pKi ± SEM (converted).

T1 sequence (P30989 whole entry): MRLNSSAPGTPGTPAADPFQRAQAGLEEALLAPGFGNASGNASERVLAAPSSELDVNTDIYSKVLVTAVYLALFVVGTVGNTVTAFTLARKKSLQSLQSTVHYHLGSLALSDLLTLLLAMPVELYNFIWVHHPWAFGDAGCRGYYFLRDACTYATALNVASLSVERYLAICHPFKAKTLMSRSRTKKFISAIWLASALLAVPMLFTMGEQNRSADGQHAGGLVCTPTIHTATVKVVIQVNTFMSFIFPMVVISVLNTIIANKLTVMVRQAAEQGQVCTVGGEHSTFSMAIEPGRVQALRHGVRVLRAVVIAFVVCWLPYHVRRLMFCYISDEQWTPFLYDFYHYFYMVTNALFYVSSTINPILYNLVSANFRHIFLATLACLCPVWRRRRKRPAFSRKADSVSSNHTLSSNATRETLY

The Kd is the equilibrium constant for the complex coming apart. The low end stands for tighter binding, the high end for weaker binding. As to `CCC(=O)NCCCCNC(=O)NC(=N)NCCC[C@H](NC(=O)[C@@H]1CCCN1C(=O)[C@@H](NC(=O)CCc1cn(CCCNC(=O)c2ccc(-c3c4ccc(=[N+](C)C)cc-4oc4cc(N(C)C)ccc34)c(C(=O)[O-])c2)nn1)C1CCNCC1)C(=O)N[C@@H](CCCNC(=N)N)C(=O)N1CCC[C@H]1C(=O)N[C@@H](Cc1ccc(O)cc1)C(=O)N[C@H](C(=O)N[C@@H](CC(C)C)C(=O)O)[C@@H](C)CC` [[^3H]13], at NTS1R [1], the affinity, expressed as Kd, was 1.2 ± 0.1 nM. Consider `CCC(=O)NCCCCNC(=O)N=C(N)NCCC[C@H](NC(=O)[C@@H]1CCCN1C(=O)[C@@H](NC(=O)CCc1cn(CCCNC(=O)c2ccc(-c3c4ccc(=[N+](C)C)cc-4oc4cc(N(C)C)ccc34)c(C(=O)[O-])c2)nn1)C1CCNCC1)C(=O)N[C@@H](CCCNC(=N)N)C(=O)N1CCC[C@H]1C(=O)N[C@@H](Cc1ccc(O)cc1)C(=O)N[C@H](C(=O)N[C@@H](CC(C)C)C(=O)O)[C@@H](C)CC` [Compound 13, N^α-(3-(1-N-((1-Carboxylato-2-(6-(dimethylamino)-3-(dimethyliminio)-3H-xanthen-9-yl)phen-5-yl)1-oxomethyl)aminoprop-3-yl-1H-1,2,3-triazol-4-yl)propanoyl)-2-(piperidin-4-yl)-Gly-Pro-N^ω-[(4-(N-propanoyl)aminobutyl)aminocarbonyl]Arg-Arg-Pro-Tyr-Ile-Leu Tris(hydrotrifluoroacetate)], for which the Ki was 1.51 nM at NTS1R [2] and 4.68 nM on NTS1R [3].

The values are drawn from publication PMC11440508, “Dually Labeled Neurotensin NTS1R Ligands for Probing Radiochemical and Fluorescence-Based Binding Assays” (Journal of Medicinal Chemistry, 2024).
